From the supplement of paper PMC10307832

What was measured:
Experiment in all cases: relative viability (nuclei count vs DMSO), 5 days (fraction); higher = more cells survive
201T = system: 201T
Outline: (§1)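 Values are medians from duplicate plates. Each reflects relative viability, defined as the nuclei count of treated wells over that of vehicle wells. Lung cancer cell lines in 1536-well plates were pin-tool dosed one day after seeding with one drug alone or with a fixed anchor-drug dose plus five library-drug doses (not always all listed) in √10 steps, then fixed, stained and imaged at 4× after 5 days.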

A-427 = system: A-427
Outline: as §1

ABC-1 = system: ABC-1
Outline: as §1

BEN = system: BEN
Outline: as §1

CAL-12T = system: CAL-12T
Outline: as §1

H3255 = system: H3255
Outline: as §1

LC-2-ad = system: LC-2-ad
Outline: as §1

LCLC-97TM1 = system: LCLC-97TM1
Outline: as §1

NCI-H1650 = system: NCI-H1650
Outline: as §1

NCI-H1651 = system: NCI-H1651
Outline: as §1

NCI-H1792 = system: NCI-H1792
Outline: as §1

NCI-H1915 = system: NCI-H1915
Outline: as §1

NCI-H1944 = system: NCI-H1944
Outline: as §1

NCI-H2023 = system: NCI-H2023
Outline: as §1

NCI-H2087 = system: NCI-H2087
Outline: as §1

NCI-H441 = system: NCI-H441
Outline: as §1

NCI-H460 = system: NCI-H460
Outline: as §1

NCI-H520 = system: NCI-H520
Outline: as §1

NCI-H596 = system: NCI-H596
Outline: as §1

NCI-H650 = system: NCI-H650
Outline: as §1

NCI-H661 = system: NCI-H661
Outline: as §1

NCI-H727 = system: NCI-H727
Outline: as §1

PC-3 [JPC-3] = system: PC-3 [JPC-3]
Outline: as §1

Q: What does the source list for `O=C(O)c1ccc(-c2c[nH]c3ncc(-c4ccccc4)cc23)cc1C1CCCC1` + CCNC(=O)c1noc(-c2cc(C(C)C)c(O)cc2O)c1-c1ccc(CN2CCOCC2)cc1 [Luminespib] (partner 0.01 µM)?
A: relative viability (201T; first compound 0.04 µM): 1.08; relative viability (201T; first compound 0.1265 µM): 1.04; relative viability (201T; first compound 0.4 µM): 1.07; relative viability (201T; first compound 1.265 µM): 0.987; relative viability (A-427; first compound 0.04 µM): 0.956; relative viability (A-427; first compound 0.1265 µM): 1.01; relative viability (A-427; first compound 0.4 µM): 0.647; relative viability (A-427; first compound 1.265 µM): 0.577; relative viability (ABC-1; first compound 0.1265 µM): 0.572; relative viability (ABC-1; first compound 1.265 µM): 0.509; relative viability (BEN; first compound 0.04 µM): 0.569; relative viability (BEN; first compound 0.1265 µM): 0.32; relative viability (BEN; first compound 0.4 µM): 0.284; relative viability (BEN; first compound 1.265 µM): 0.306; relative viability (CAL-12T; first compound 0.04 µM): 0.57; relative viability (CAL-12T; first compound 0.1265 µM): 0.354; relative viability (CAL-12T; first compound 0.4 µM): 0.519; relative viability (CAL-12T; first compound 1.265 µM): 0.268; relative viability (H3255; first compound 0.04 µM): 0.978; relative viability (H3255; first compound 0.1265 µM): 0.983; relative viability (H3255; first compound 0.4 µM): 0.855; relative viability (H3255; first compound 1.265 µM): 0.778; relative viability (LC-2-ad; first compound 0.04 µM): 0.874; relative viability (LC-2-ad; first compound 0.1265 µM): 1.08; relative viability (LC-2-ad; first compound 0.4 µM): 0.822; relative viability (LC-2-ad; first compound 1.265 µM): 0.566; relative viability (LCLC-97TM1; first compound 0.04 µM): 0.858; relative viability (LCLC-97TM1; first compound 0.1265 µM): 0.82; relative viability (LCLC-97TM1; first compound 0.4 µM): 0.633; relative viability (LCLC-97TM1; first compound 1.265 µM): 0.5; relative viability (NCI-H1650; first compound 0.04 µM): 0.194; relative viability (NCI-H1650; first compound 0.1265 µM): 0.17; relative viability (NCI-H1650; first compound 0.4 µM): 0.196; relative viability (NCI-H1650; first compound 1.265 µM): 0.197; relative viability (NCI-H1651; first compound 0.04 µM): 0.927; relative viability (NCI-H1651; first compound 0.1265 µM): 0.863; relative viability (NCI-H1651; first compound 0.4 µM): 0.6; relative viability (NCI-H1651; first compound 1.265 µM): 0.638; relative viability (NCI-H1792; first compound 0.1265 µM): 0.477; relative viability (NCI-H1792; first compound 0.4 µM): 0.351; relative viability (NCI-H1792; first compound 1.265 µM): 0.519; relative viability (NCI-H1915; first compound 0.04 µM): 0.784; relative viability (NCI-H1915; first compound 0.1265 µM): 0.714; relative viability (NCI-H1915; first compound 0.4 µM): 0.643; relative viability (NCI-H1915; first compound 1.265 µM): 0.506; relative viability (NCI-H1944; first compound 0.04 µM): 0.687; relative viability (NCI-H1944; first compound 0.1265 µM): 0.836; relative viability (NCI-H1944; first compound 0.4 µM): 0.716; relative viability (NCI-H1944; first compound 1.265 µM): 0.702; relative viability (NCI-H2023; first compound 0.04 µM): 0.694; relative viability (NCI-H2023; first compound 0.1265 µM): 1.01; relative viability (NCI-H2023; first compound 0.4 µM): 0.75; relative viability (NCI-H2023; first compound 1.265 µM): 0.34; relative viability (NCI-H2087; first compound 0.04 µM): 0.182; relative viability (NCI-H2087; first compound 0.1265 µM): 0.192; relative viability (NCI-H2087; first compound 0.4 µM): 0.221; relative viability (NCI-H2087; first compound 1.265 µM): 0.164; relative viability (NCI-H441; first compound 0.04 µM): 0.332; relative viability (NCI-H441; first compound 0.1265 µM): 0.431; relative viability (NCI-H441; first compound 0.4 µM): 0.266; relative viability (NCI-H441; first compound 1.265 µM): 0.298; relative viability (NCI-H460; first compound 0.04 µM): 0.0285; relative viability (NCI-H460; first compound 0.1265 µM): 0.0329; relative viability (NCI-H460; first compound 0.4 µM): 0.0398; relative viability (NCI-H460; first compound 1.265 µM): 0.0257; relative viability (NCI-H520; first compound 0.04 µM): 0.223; relative viability (NCI-H520; first compound 0.1265 µM): 0.195; relative viability (NCI-H520; first compound 0.4 µM): 0.211; relative viability (NCI-H520; first compound 1.265 µM): 0.217; relative viability (NCI-H596; first compound 0.04 µM): 1; relative viability (NCI-H596; first compound 0.1265 µM): 1.03; relative viability (NCI-H596; first compound 0.4 µM): 0.909; relative viability (NCI-H596; first compound 1.265 µM): 0.973; relative viability (NCI-H650; first compound 0.04 µM): 0.866; relative viability (NCI-H650; first compound 0.1265 µM): 0.861; relative viability (NCI-H650; first compound 0.4 µM): 0.757; relative viability (NCI-H650; first compound 1.265 µM): 0.293; relative viability (NCI-H661; first compound 0.04 µM): 0.915; relative viability (NCI-H661; first compound 0.4 µM): 0.905; relative viability (NCI-H661; first compound 1.265 µM): 0.897; relative viability (NCI-H727; first compound 0.04 µM): 0.325; relative viability (NCI-H727; first compound 0.1265 µM): 0.41; relative viability (NCI-H727; first compound 0.4 µM): 0.638; relative viability (NCI-H727; first compound 1.265 µM): 0.281; relative viability (PC-3 [JPC-3]; first compound 0.04 µM): 0.678; relative viability (PC-3 [JPC-3]; first compound 0.1265 µM): 0.761; relative viability (PC-3 [JPC-3]; first compound 0.4 µM): 0.619; relative viability (PC-3 [JPC-3]; first compound 1.265 µM): 0.569
